The text below walks through data of patent US9453014B2, “Cyclic amide derivatives as inhibitors of 11-β-hydroxysteroid dehydrogenase and uses thereof” (CONNEXIOS LIFE SCIENCES PVT. LTD., priority 2011, dated 2016).

In the first assay the target is T1, human full length HSD11 β 1 (Homo sapiens, UniProt P28845).
T1 construct: transient expression of human full length HSD11 β 1 expression vector; host or cells: CHO cells (transient transfection)
T1 sequence (P28845 whole entry): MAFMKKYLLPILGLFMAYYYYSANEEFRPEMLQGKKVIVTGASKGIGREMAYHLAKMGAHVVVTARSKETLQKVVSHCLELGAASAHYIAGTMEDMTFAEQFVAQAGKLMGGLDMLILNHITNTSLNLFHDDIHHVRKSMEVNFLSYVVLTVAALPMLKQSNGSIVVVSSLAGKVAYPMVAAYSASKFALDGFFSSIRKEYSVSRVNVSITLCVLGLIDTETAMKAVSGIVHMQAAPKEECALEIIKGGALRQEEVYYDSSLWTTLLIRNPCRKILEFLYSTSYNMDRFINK
Kind of assay: In Vitro HSD11β1 Inhibition Assay. To be noted: 11βHSD1 (IC50). The class given is cell-based. The method, boiled down:
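CHO cells transiently transfected with human full-length HSD11β1 were re-seeded after 24 h and, 24 h later, incubated overnight with 200 nM cortisone plus 500 uM NADPH and inhibitor. Cortisone-to-cortisol conversion was measured by LC/MS-MS. IC50 from an 8-point log concentration–inhibition curve.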
The compound `Cc1cccc2[nH]cc(C(=O)CC(=O)N3CCCC4CCCCC43)c12` (stereo not shown) [Compound 30, 1-(4-methyl-1H-indol-3-yl)-3-(octahydroquinolin-1(2H)-yl)propane-1,3-dione] displayed an IC50 of over 250 nM.

The assay is the same for the next values; noted with them: CHO cells transiently expressing human HSD11β1; 200 nM cortisone+500 uM NADPH overnight; cortisone to cortisol by LC/MS-MS; read-out: 11βHSD1 (IC50).
`COC(=O)C1CCN(C(=O)CCc2nc3ccccc3s2)C2CCCCC12` (stereo not shown) [Example 77, methyl 1-[3-(1,3-benzothiazol-2-yl)propanoyl]decahydroquinoline-4-carboxylate]: the IC50 is over 250 nM.
The same measure, in the same setting: under `CC(CC(=O)N1CCCC2C(C(=O)O)CCCC21)c1cn(C)c2cccc(C3CC3)c12` (single isomer, unassigned) [Compound 212, 1-[3-(4-cyclopropyl-1-methyl-1H-indol-3-yl)butanoyl]decahydroquinoline-5-carboxylic acid] stands over 250 nM.
Consider `CC(CC(=O)N1CCCC2C(C(=O)O)CCCC21)c1c[nH]c2cccc(-c3ccc(F)o3)c12` (single isomer, unassigned) [Compound 249, 1-{3-[4-(5-fluorofuran-2-yl)-1H-indol-3-yl]butanoyl}decahydroquinoline-5-carboxylic acid], for which the IC50 was 200 to 250 nM.
For `CC(CC(=O)N1CCCC2C(C(=O)O)CCCC21)c1c[nH]c2nccc(C3CC3)c12` (stereo not shown) [Compound 205, 1-[3-(4-cyclopropyl-1H-pyrrolo[2,3-b]pyridin-3-yl)butanoyl]decahydroquinoline-5-carboxylic acid], the IC50 is over 250 nM.
Same read-out and setting: under `CC(C)(Sc1nc2ccccc2s1)C(=O)N1CCCC2CCCCC21` (stereo not shown) [Example 74, 2-(1,3-benzothiazol-2-ylsulfanyl)-2-methyl-1-(octahydroquinolin-1(2H)-yl)propan-1-one] stands over 250 nM; under `Cc1cccc2c1c(CCC(=O)N1CCO[C@@H]3CCCC[C@H]31)cn2C` (single isomer, unassigned) [Compound 65, 3-(1,4-dimethyl-1H-Indol-3-yl)-1-[trans-(4a,8a)-octahydro-4H-1,4-benzoxazin-4-yl]propan-1-one], over 250 nM.
On the same count and under the same terms, with `CC(C)C(CC(=O)N1CCCC2(C)CCCCC12)c1c[nH]c2cccc(F)c12` (single isomer, unassigned) [Example 115, 3-(4-fluoro-1H-indol-3-yl)-4-methyl-1-(4a-methyloctahydroquinolin-1(2H)-yl)pentan-1-one] the figure was over 250 nM.
On the same count and under the same terms, under `CC(CC(=O)N1CCCC2C(C(=O)O)CCCC21)c1cn(C)c2cccc(C3CC3)c12` (stereo not shown) [Compound 204, 1-[3-(4-cyclopropyl-1-methyl-1H-indol-3-yl)butanoyl]decahydroquinoline-5-carboxylic acid] stands under 100 nM; under `N#CC(Cc1c[nH]c2ccccc12)C(=O)N1CCCC2CCCCC21` (stereo not shown) [Example 98, 2-(1H-indol-3-ylmethyl)-3-(octahydroquinolin-1(2H)-yl)-3-oxopropanenitrile], over 250 nM; under `O=C(CCc1c[nH]c2ccc(O)cc12)N1CCCC2CCCCC21` (stereo not shown) [Compound 15, 3-(5-hydroxy-1H-indol-3-yl)-1-(octahydroquinolin-1(2H)-yl)propan-1-one], 100 to 150 nM.
Consider `CC(CC(=O)N1CCCC2C1CCCC2(C)C(=O)O)c1c[nH]c2cccc(C3CC3)c12` (stereo not shown) [Compound 237, 1-[3-(4-cyclopropyl-1H-indol-3-yl)butanoyl]-5-methyldecahydroquinoline-5-carboxylic acid], for which the IC50 is 150 to 200 nM.
As for `CC(C)C(CC(=O)N1CCCC2(C)CCCCC12)c1c[nH]c2cccc(F)c12` (stereo not shown) [Example 112, 3-(4-fluoro-1H-indol-3-yl)-4-methyl-1-(4a-methyloctahydroquinolin-1(2H)-yl)pentan-1-one], the IC50 was under 100 nM.
With `CC(Oc1c[nH]c2ccccc12)C(=O)N1CCCC2CCCCC21` (stereo not shown) [Compound 25, 2-(1H-indol-3-yloxy)-1-(octahydroquinolin-1(2H)-yl)propan-1-one], the concentration for half-maximal inhibition (IC50) is over 250 nM.
Take `O=C(O)C1CCCC2C1CCCN2C(=O)CC(c1cccs1)c1c[nH]c2cccc(Cl)c12` (stereo not shown) [Compound 206, 1-[3-(4-chloro-1H-indol-3-yl)-3-(thiophen-2-yl)propanoyl]decahydroquinoline-5-carboxylic acid]: the IC50 is under 100 nM.
The same measure, in the same setting: under `CC(CC(=O)N1CCOC2CCCCC21)c1c[nH]c2ncccc12` (stereo not shown) [Compound 22, 1-(octahydro-4H-1,4-benzoxazin-4-yl)-3-(1H-pyrrolo[2,3-b]pyridin-3-yl)butan-1-one] stands over 250 nM.
On the same count and under the same terms, with `CC(CC(=O)N1CCCC2(C(=O)O)CCCCC12)c1c[nH]c2cccc(Cl)c12` (stereo not shown) [Example 129, 1-[3-(4-chloro-1H-indol-3-yl)butanoyl]octahydroquinoline-4a(2H)-carboxylic acid] the figure was over 250 nM; with `O=C(O)C1CCN(C(=O)CCc2c[nH]c3ccccc23)C2CCCCC12` (stereo not shown) [Compound 50, 1-[3-(1H-indol-3-yl)propanoyl]decahydroquinoline-4-carboxylic acid], over 250 nM.
As to `Cn1cc(CCC(=O)N2CCCC3CCCCC32)c2cccnc21` (stereo not shown) [Example 87, 3-(1-methyl-1H-pyrrolo[2,3-b]pyridin-3-yl)-1-(octahydroquinolin-1 (2H)-yl)propan-1-one], the IC50 is under 100 nM.
For `CC(CC(=O)N1CCCC2C(C(=O)O)CCCC21)c1cn(C)c2cccc(C3CC3)c12` (single isomer, unassigned) [Compound 213, 1-[3-(4-cyclopropyl-1-methyl-1H-indol-3-yl)butanoyl]decahydroquinoline-5-carboxylic acid], the half-maximal inhibitory concentration (IC50) is over 250 nM.
The same measure, in the same setting: with `O=C(O)C1CCN(C(=O)CC(c2ccccc2)n2nnc3ccccc32)C2CCCCC12` (single isomer, unassigned) [Example 182, 1-[3-(1H-benzotriazol-1-yl)-3-phenylpropanoyl]decahydroquinoline-4-carboxylic acid] the figure was over 250 nM; with `O=C(/C=C/c1c[nH]c2ccccc12)N1CCCC2CCCCC21` (stereo not shown) [Compound 8, (2E)-3-(1H-indol-3-yl)-1-(octahydroquinolin-1(2H)-yl)prop-2-en-1-one], 100 to 150 nM; with `CC1CCC2CCCCC2N1C(=O)CCc1nc2ccccc2s1` (stereo not shown) [Example 76, 3-(1,3-benzothiazol-2-yl)-1-(2-methyloctahydroquinolin-1 (2H)-yl)propan-1-one], over 250 nM.
Same read-out and setting: with `O=C(CCc1c[nH]c2cccc(F)c12)N1CCCC2CCCCC21` (stereo not shown) [Compound 44, 3-(4-fluoro-1H-indol-3-yl)-1-(octahydroquinolin-1(2H)-yl)propan-1-one] the figure was under 100 nM.
Still for that read-out and setting: under `CC(CC(=O)N1CCCC2CCCCC21)n1nc2cccc(Cl)c2n1` (stereo not shown) [Example 167, 3-(4-chloro-2H-benzotriazol-2-yl)-1-(octahydroquinolin-1(2H)-yl)butan-1-one] stands under 100 nM; under `CC(CC(=O)N1CCCC2C(C(=O)O)CCCC21)c1c[nH]c2ccc(F)c(C3CC3)c12` (stereo not shown) [Compound 220, 1-[3-(4-cyclopropyl-5-fluoro-1H-indol-3-yl)butanoyl]decahydroquinoline-5-carboxylic acid], under 100 nM; under `Cc1ccc2[nH]cc(CCC(=O)N3CCCC4CCCCC43)c2c1` (stereo not shown) [Compound 3, 3-(5-methyl-1H-indol-3-yl)-1-(octahydroquinolin-1(2H)-yl)propan-1-one], 150 to 200 nM.
`CO/N=C1/CCN(C(=O)CCc2c[nH]c3ccccc23)C2CCCCC12` (stereo not shown) [Compound 36]: the IC50 is over 250 nM.
